# From ChEMBL document CHEMBL6153094, “Rationally designed highly amphipathic antimicrobial peptides demonstrating superior bacterial selectivity relative to the corresponding α-helix peptide” (Eur J Med Chem, 2025)
# Activity calls are given as the source filed them. The rule behind the calls is not given here.
# Assays:
# Escherichia coli = assay: Antimicrobial activity against Escherichia coli ATCC 25922 assessed as inhibition of visible bacterial growth incubated for 18 hrs by broth microdilution method; format: functional
# Klebsiella pneumoniae = assay: Antimicrobial activity against Klebsiella pneumoniae ATCC 700603 assessed as inhibition of visible bacterial growth incubated for 18 hrs by broth microdilution method; format: functional
# Bacillus subtilis = assay: Antimicrobial activity against Bacillus subtilis ATCC 23857 assessed as inhibition of visible bacterial growth incubated for 18 hrs by broth microdilution method; format: functional
# [1] = test system: Staphylococcus epidermidis; assay: Antimicrobial activity against Staphylococcus epidermidis ATCC 12228 assessed as inhibition of visible bacterial growth incubated for 18 hrs by broth-dilution method; format: functional
# Enterococcus faecalis = assay: Antimicrobial activity against Enterococcus faecalis ATCC 29212 assessed as inhibition of visible bacterial growth incubated for 18 hrs by broth-dilution method; format: functional
# Staphylococcus aureus [2] = assay: Antimicrobial activity against methicillin-drug resistant Staphylococcus aureus ATCC 33591 assessed as concentration required to eliminate 90% bacteria incubated for 18 hrs by broth-microdilution method; format: functional
# Staphylococcus aureus [3] = assay: Antimicrobial activity against methicillin-drug resistant Staphylococcus aureus clinical isolate 2 assessed as concentration required to eliminate 90% bacteria incubated for 18 hrs by broth-microdilution method; format: functional
# Staphylococcus aureus [4] = assay: Antibacterial activity against Staphylococcus aureus ATCC 25923 assessed as inhibition of bacterial growth at 2 times of MIC incubated for 18 hrs in presence of <2 microg/ml of trypsin by absorbance based assay; format: functional, organism-based
# Staphylococcus aureus [5] = assay: Antibacterial activity against Staphylococcus aureus ATCC 25923 assessed as inhibition of bacterial growth at 2 times of MIC incubated for 18 hrs in presence of 2000 microg/ml of chymotrypsin by absorbance based assay; format: functional, organism-based
# Pseudomonas aeruginosa [6] = assay: Antibacterial activity against Pseudomonas aeruginosa ATCC 27853 assessed as fold change in MIC incubated for 18 hrs in presence of KCl by Mueller-Hinton broth based assay; format: functional
# Pseudomonas aeruginosa [7] = assay: Antibacterial activity against Pseudomonas aeruginosa ATCC 27853 incubated for 18 hrs in presence of ZnCl2 by Mueller-Hinton broth based assay; format: functional, organism-based
# Pseudomonas aeruginosa [8] = assay: Antibacterial activity against Pseudomonas aeruginosa ATCC 27853 incubated for 18 hrs in presence of FeCl3 by Mueller-Hinton broth based assay; format: functional, organism-based
# Staphylococcus aureus [9] = assay: Antibacterial activity against Staphylococcus aureus ATCC 25923 assessed as fold change in MIC incubated for 18 hrs in presence of KCl by Mueller-Hinton broth based assay; format: functional
# Pseudomonas aeruginosa [10] = assay: Antibacterial activity against Pseudomonas aeruginosa ATCC 27853 assessed as fold change in MIC incubated for 18 hrs in presence of 2.5% serum by broth microdilution method; format: functional
# Pseudomonas aeruginosa [11] = assay: Antibacterial activity against Pseudomonas aeruginosa ATCC 27853 incubated for 18 hrs in presence of 10% serum by broth microdilution method; format: functional, organism-based
# Staphylococcus aureus [12] = assay: Antibacterial activity against Staphylococcus aureus ATCC 25923 assessed as fold change in MIC incubated for 18 hrs in presence of 5% serum by broth microdilution method; format: functional
# Staphylococcus aureus [13] = assay: Antibacterial activity against Staphylococcus aureus ATCC 25923 incubated for 18 hrs in presence of 10% serum by broth microdilution method; format: functional, organism-based
# Staphylococcus aureus [14] = assay: Antibiofilm activity in Staphylococcus aureus ATCC 25923 assessed as inhibition of biofilm formation at 1 times of MIC incubated for 24 hrs by crystal violet staining based analysis relative to control; format: functional
# Staphylococcus aureus [15] = assay: Antibiofilm activity in Staphylococcus aureus ATCC 25923 assessed as inhibition of biofilm formation at 2 times of MIC incubated for 24 hrs by crystal violet staining based analysis relative to control; format: functional
# Staphylococcus aureus [16] = assay: Antibiofilm activity in Staphylococcus aureus ATCC 25923 assessed as inhibition of biofilm formation at 4 times of MIC incubated for 24 hrs by crystal violet staining based analysis relative to control; format: functional
# Staphylococcus aureus [17] = assay: Resistance fold, ratio of MIC for Staphylococcus aureus ATCC 25923 measured after 20 passages to MIC for Staphylococcus aureus ATCC 25923 measured immediately; format: functional
# Staphylococcus aureus [18] = assay: Resistance fold, ratio of MIC for Staphylococcus aureus ATCC 25923 measured after 20 passages in presence of gentamicin to MIC for Staphylococcus aureus ATCC 25923 measured immediately in presence of gentamicin; format: functional
# Staphylococcus aureus [19] = assay: Synergistic antimicrobial activity against gentamicin-resistant Staphylococcus aureus ATCC 25923 assessed as fractional inhibitory concentration index incubated for 18 hrs in presence of gentamicin by checkerboard microdilution method; format: functional
# Pseudomonas aeruginosa [20] = assay: Bactericidal activity against Pseudomonas aeruginosa ATCC 27853 assessed as bacterial killing at 1 to 4 times of MIC by time-kill kinetics assay; format: functional, organism-based; details: time <= 360.0 min
# Staphylococcus aureus [21] = assay: Bactericidal activity against Staphylococcus aureus ATCC 25923 assessed as bacterial killing measured upto 360 mins by time-kill kinetics assay; format: functional, organism-based
# Staphylococcus aureus [22] = assay: Bactericidal activity against Staphylococcus aureus ATCC 25923 assessed as bacterial eradication at 1 times of MIC measured within 90 mins by time-kill kinetics assay; format: functional, organism-based
# Staphylococcus aureus [23] = assay: Bactericidal activity against Staphylococcus aureus ATCC 25923 assessed as bacterial eradication at 4 times of MIC measured within 30 mins by time-kill kinetics assay; format: functional, organism-based
# Cell membrane = assay: Disruption of outer membrane integrity in Pseudomonas aeruginosa ATCC 27853 assessed as increase in fluorescence intensity at 1 times of MIC measured for 12 mins by NPN uptake assay; format: subcellular
# Pseudomonas aeruginosa [24] = assay: Induction of morphological changes in Pseudomonas aeruginosa ATCC 27853 assessed as cell adhesion at 2 times of MIC incubated for 30 to 120 mins by SEM analysis; format: functional, organism-based; details: time 30-120 min
# Pseudomonas aeruginosa [25] = assay: Induction of morphological changes in Pseudomonas aeruginosa ATCC 27853 assessed as cellular fragmentation at 2 times of MIC incubated for 30 to 120 mins by SEM analysis; format: functional, organism-based; details: time 30-120 min
# Staphylococcus aureus [26] = assay: Induction of morphological changes in Staphylococcus aureus ATCC 25923 assessed as cell adhesion at 2 times of MIC incubated for 30 to 120 mins by SEM analysis; format: functional, organism-based; details: time 30-120 min
# Staphylococcus aureus [27] = assay: Induction of morphological changes in Staphylococcus aureus ATCC 25923 assessed as blister formation at 2 times of MIC incubated for 30 to 120 mins by SEM analysis; format: functional, organism-based; details: time 30-120 min
# [28] = Toxicity in male Balb/c mouse assessed as effect on survival at 63.5 mg/kg, ip measured after 7 days; format: organism-based; details: in vivo, 168 h, time 7 day
# [29] = Toxicity in male Balb/c mouse assessed as mortality at 100.8 mg/kg, ip measured after 7 days relative to control; format: organism-based; details: in vivo, time 7 day
# [30] = Toxicity in male Balb/c mouse assessed as animal death at 127 mg/kg, ip measured within 2 days; format: organism-based; details: in vivo, 48 h, time < 2 day
# Staphylococcus aureus [31] = assay: (§1) Antibacterial activity against methicillin-resistant Staphylococcus aureus ATCC 33591 infected in male Balb/c mouse model of full thickness skin wound assessed as reduction in number of inflammatory cells in skin at 1 mg/ml pre-infected with bacteria for 1 hrs followed by compound administration at 1,12 and 36 hrs post infection and measured after 10 days by H and E staining based analysis; format: functional, organism-based; details: time 10.0 day
# Staphylococcus aureus [32] = assay: as §1, with “decrease” for “reduction”, “cell necrosis” for “number of inflammatory cells”; format: functional, organism-based; details: time 10.0 day
substance,measurement,setting,value
H-RRWFRRWRRWFR-NH2,MIC,Escherichia coli,4 µM
same,MIC,Klebsiella pneumoniae,4 µM
same,MIC,Bacillus subtilis,1 µM
same,MIC,[1],1 µM
same,MIC,Enterococcus faecalis,8 µM
same,EC90,Staphylococcus aureus [2],2.25 µM
same,EC90,Staphylococcus aureus [3],2.86 µM
same,Activity,Staphylococcus aureus [4],Active
same,Activity,Staphylococcus aureus [5],Not active; Entire Loss Of Activity Observed
same,fold change (FC),Pseudomonas aeruginosa [6],2
same,Activity,Pseudomonas aeruginosa [7],Active
same,Activity,Pseudomonas aeruginosa [8],Active
same,fold change (FC),Staphylococcus aureus [9],2
same,fold change (FC),Pseudomonas aeruginosa [10],32
same,Activity,Pseudomonas aeruginosa [11],inactive
same,fold change (FC),Staphylococcus aureus [12],128
same,Activity,Staphylococcus aureus [13],inactive
same,inhibition (INH),Staphylococcus aureus [14],~50%
same,inhibition (INH),Staphylococcus aureus [15],~75%
same,inhibition (INH),Staphylococcus aureus [16],~75%
same,fold change (FC),Staphylococcus aureus [17],<=2
same,fold change (FC),Staphylococcus aureus [18],<=2
same,fractional inhibitory concentration index (FICI),Staphylococcus aureus [19],0.25
same,Activity,Pseudomonas aeruginosa [20],Time-dependent-effect
same,Activity,Staphylococcus aureus [21],Dose-dependent-effect
same,Activity,Staphylococcus aureus [22],Active
same,Activity,Staphylococcus aureus [23],Active
same,Activity,Cell membrane,Active
same,Activity,Pseudomonas aeruginosa [24],Active
same,Activity,Pseudomonas aeruginosa [25],Active
same,Activity,Staphylococcus aureus [26],Active
same,Activity,Staphylococcus aureus [27],Active
same,Activity,[28],Non-toxic
same,mortality at 168 h,[29],75%
same,Activity,[30],Toxic
same,Activity,Staphylococcus aureus [31],Active
same,Activity,Staphylococcus aureus [32],Active
